The values below come from the NIST ThermoML archive (doi:10.1016/j.fluid.2006.07.015).

Structures are written as SMILES. ± gives the expanded uncertainty stated by the source.

One data set in a line: activity coefficient (dimensionless); of the first substance listed, at infinite dilution; xn = mol fraction of the nth substance listed. The settings on record: 388.15 K; 101 kPa; Liquid; Chromatography; x1 = 0.
On to `C#CCCCCC` [1-heptyne] + CCCCCCCCCCCCCCCCCCC(CCCCCCCCCCCCCCCCCC)CCCCC(CCCCCCCCCCCCCCCCCC)CCCCCCCCCCCCCCCCCC, for which the activity coefficient amounted to 0.407 ± 0.034. On to `C#CCCCC` [1-hexyne] + CCCCCCCCCCCCCCCCCCC(CCCCCCCCCCCCCCCCCC)CCCCC(CCCCCCCCCCCCCCCCCC)CCCCCCCCCCCCCCCCCC, for which the activity coefficient was 0.378 ± 0.034.

Regarding `C=CCCCCCCC` [1-nonene] + CCCCCCCCCCCCCCCCCCC(CCCCCCCCCCCCCCCCCC)CCCCC(CCCCCCCCCCCCCCCCCC)CCCCCCCCCCCCCCCCCC, the activity coefficient was found to be 0.394 ± 0.034. On the same count and under the same terms, under `C#CCCCCCCC` [1-nonyne] + CCCCCCCCCCCCCCCCCCC(CCCCCCCCCCCCCCCCCC)CCCCC(CCCCCCCCCCCCCCCCCC)CCCCCCCCCCCCCCCCCC stands 0.443 ± 0.033. Consider `C#CCCCCCC` [1-octyne] + CCCCCCCCCCCCCCCCCCC(CCCCCCCCCCCCCCCCCC)CCCCC(CCCCCCCCCCCCCCCCCC)CCCCCCCCCCCCCCCCCC, for which the activity coefficient was 0.424 ± 0.034. Turning to `C=CCCCCCCCCCCCC` [1-tetradecene] + CCCCCCCCCCCCCCCCCCC(CCCCCCCCCCCCCCCCCC)CCCCC(CCCCCCCCCCCCCCCCCC)CCCCCCCCCCCCCCCCCC, the activity coefficient was determined as 0.476 ± 0.033. The same measure, in the same setting: under `C=CCCCCCCCCCCC` [1-tridecene] + CCCCCCCCCCCCCCCCCCC(CCCCCCCCCCCCCCCCCC)CCCCC(CCCCCCCCCCCCCCCCCC)CCCCCCCCCCCCCCCCCC stands 0.466 ± 0.033. The same measure, in the same setting: the figure for `C=CCCCCCCCCC` [1-undecene] + CCCCCCCCCCCCCCCCCCC(CCCCCCCCCCCCCCCCCC)CCCCC(CCCCCCCCCCCCCCCCCC)CCCCCCCCCCCCCCCCCC is 0.436 ± 0.033.

In the case of `C1CCC2CCCC2C1` (stereo unspecified) [1H-indene, octahydro-] + CCCCCCCCCCCCCCCCCCC(CCCCCCCCCCCCCCCCCC)CCCCC(CCCCCCCCCCCCCCCCCC)CCCCCCCCCCCCCCCCCC, the activity coefficient is 0.268 ± 0.036. For the compound `CC(C)C(C)(C)C` [2,2,3-trimethylbutane] + CCCCCCCCCCCCCCCCCCC(CCCCCCCCCCCCCCCCCC)CCCCC(CCCCCCCCCCCCCCCCCC)CCCCCCCCCCCCCCCCCC, the activity coefficient stood at 0.345 ± 0.035. Same read-out and setting: the figure for `CC(C)CC(C)(C)C` [2,2,4-trimethylpentane] + CCCCCCCCCCCCCCCCCCC(CCCCCCCCCCCCCCCCCC)CCCCC(CCCCCCCCCCCCCCCCCC)CCCCCCCCCCCCCCCCCC is 0.401 ± 0.034. With `CC(C)C(C)C(C)C` [2,3,4-trimethylpentane] + CCCCCCCCCCCCCCCCCCC(CCCCCCCCCCCCCCCCCC)CCCCC(CCCCCCCCCCCCCCCCCC)CCCCCCCCCCCCCCCCCC, the activity coefficient was determined as 0.356 ± 0.035. For the compound `CCC(C)CC(C)C` (stereo unspecified) [2,4-dimethylhexane] + CCCCCCCCCCCCCCCCCCC(CCCCCCCCCCCCCCCCCC)CCCCC(CCCCCCCCCCCCCCCCCC)CCCCCCCCCCCCCCCCCC, the activity coefficient worked out at 0.396 ± 0.034. Same read-out and setting: under `CC(C)CC(C)C` [2,4-dimethylpentane] + CCCCCCCCCCCCCCCCCCC(CCCCCCCCCCCCCCCCCC)CCCCC(CCCCCCCCCCCCCCCCCC)CCCCCCCCCCCCCCCCCC stands 0.392 ± 0.034. Same read-out and setting: under `CC#CCCC` [2-hexyne] + CCCCCCCCCCCCCCCCCCC(CCCCCCCCCCCCCCCCCC)CCCCC(CCCCCCCCCCCCCCCCCC)CCCCCCCCCCCCCCCCCC stands 0.377 ± 0.034. For `CCC(C)C(C)CC` (stereo unspecified) [3,4-dimethylhexane] + CCCCCCCCCCCCCCCCCCC(CCCCCCCCCCCCCCCCCC)CCCCC(CCCCCCCCCCCCCCCCCC)CCCCCCCCCCCCCCCCCC, the activity coefficient was 0.357 ± 0.035. The same measure, in the same setting: under `CCC#CCC` [3-hexyne] + CCCCCCCCCCCCCCCCCCC(CCCCCCCCCCCCCCCCCC)CCCCC(CCCCCCCCCCCCCCCCCC)CCCCCCCCCCCCCCCCCC stands 0.406 ± 0.034; under `CCCC#CCCC` [4-octyne] + CCCCCCCCCCCCCCCCCCC(CCCCCCCCCCCCCCCCCC)CCCCC(CCCCCCCCCCCCCCCCCC)CCCCCCCCCCCCCCCCCC, 0.429 ± 0.034. On the same count and under the same terms, under `C1C2CC3CC1CC(C2)C3` [adamantane] + CCCCCCCCCCCCCCCCCCC(CCCCCCCCCCCCCCCCCC)CCCCC(CCCCCCCCCCCCCCCCCC)CCCCCCCCCCCCCCCCCC stands 0.339 ± 0.035.

Still in this data set, the particulars now being: 403.15 K; 101 kPa; Liquid; Chromatography; x1 = 0.
As for `C1=CCCC=C1` [1,3-cyclohexadiene] + CCCCCCCCCCCCCCCCCCC(CCCCCCCCCCCCCCCCCC)CCCCC(CCCCCCCCCCCCCCCCCC)CCCCCCCCCCCCCCCCCC, the activity coefficient came to 0.255 ± 0.036. On to `C1=CCC=CC1` [1,4-cyclohexadiene] + CCCCCCCCCCCCCCCCCCC(CCCCCCCCCCCCCCCCCC)CCCCC(CCCCCCCCCCCCCCCCCC)CCCCCCCCCCCCCCCCCC, for which the activity coefficient stood at 0.242 ± 0.036. Consider `C=CCCCCCCCC` [1-decene] + CCCCCCCCCCCCCCCCCCC(CCCCCCCCCCCCCCCCCC)CCCCC(CCCCCCCCCCCCCCCCCC)CCCCCCCCCCCCCCCCCC, for which the activity coefficient amounted to 0.413 ± 0.034. Still for that read-out and setting: under `C#CCCCCCCCC` [1-decyne] + CCCCCCCCCCCCCCCCCCC(CCCCCCCCCCCCCCCCCC)CCCCC(CCCCCCCCCCCCCCCCCC)CCCCCCCCCCCCCCCCCC stands 0.446 ± 0.033; under `C=CCCCCCCCCCC` [1-dodecene] + CCCCCCCCCCCCCCCCCCC(CCCCCCCCCCCCCCCCCC)CCCCC(CCCCCCCCCCCCCCCCCC)CCCCCCCCCCCCCCCCCC, 0.453 ± 0.033.

Consider `C=CCCCCC` [1-heptene] + CCCCCCCCCCCCCCCCCCC(CCCCCCCCCCCCCCCCCC)CCCCC(CCCCCCCCCCCCCCCCCC)CCCCCCCCCCCCCCCCCC, for which the activity coefficient worked out at 0.356 ± 0.035. Still for that read-out and setting: the figure for `C#CCCCCC` [1-heptyne] + CCCCCCCCCCCCCCCCCCC(CCCCCCCCCCCCCCCCCC)CCCCC(CCCCCCCCCCCCCCCCCC)CCCCCCCCCCCCCCCCCC is 0.401 ± 0.034; for `C#CCCCC` [1-hexyne] + CCCCCCCCCCCCCCCCCCC(CCCCCCCCCCCCCCCCCC)CCCCC(CCCCCCCCCCCCCCCCCC)CCCCCCCCCCCCCCCCCC it is 0.37 ± 0.034. The same measure, in the same setting: under `C=CCCCCCCC` [1-nonene] + CCCCCCCCCCCCCCCCCCC(CCCCCCCCCCCCCCCCCC)CCCCC(CCCCCCCCCCCCCCCCCC)CCCCCCCCCCCCCCCCCC stands 0.395 ± 0.034; under `C#CCCCCCCC` [1-nonyne] + CCCCCCCCCCCCCCCCCCC(CCCCCCCCCCCCCCCCCC)CCCCC(CCCCCCCCCCCCCCCCCC)CCCCCCCCCCCCCCCCCC, 0.438 ± 0.033. With `C#CCCCCCC` [1-octyne] + CCCCCCCCCCCCCCCCCCC(CCCCCCCCCCCCCCCCCC)CCCCC(CCCCCCCCCCCCCCCCCC)CCCCCCCCCCCCCCCCCC, the activity coefficient worked out at 0.417 ± 0.034. The same measure, in the same setting: the figure for `C=CCCCCCCCCCCCC` [1-tetradecene] + CCCCCCCCCCCCCCCCCCC(CCCCCCCCCCCCCCCCCC)CCCCC(CCCCCCCCCCCCCCCCCC)CCCCCCCCCCCCCCCCCC is 0.475 ± 0.033.
